Results from publication PMC6576746, “Rational discovery of dual-indication multi-target PDE/Kinase inhibitor for precision anti-cancer therapy using structural systems pharmacology” (PLoS Computational Biology, 2019).

Legend:
Test in all cases: cells
Design in all cases: species or system panel of human cancer cell lines; Eurofins OncoPanel proliferation; nuclei count by high-content fluorescence imaging, 10-point dose response
BC-1 = details: Homo sapiens, BC1, 72 h, cell count, 3 days
In short: (§1)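 Ten half-log concentrations from 100 μM (0.1% DMSO max) applied one day post-seeding, 3-day exposure at 37°C; untreated time-zero plate for GI50. Readout is nuclear cell count by automated fluorescence imaging, giving EC50, IC50, GI50 and 0–10 activity area.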

BCP-1 = details: BCP-1, 72 h, cell count, 3 days
In short: as §1

Caki-2 = details: Homo sapiens, CAKI-2, 72 h, cell count, 3 days
In short: as §1

DB = details: Homo sapiens, DB, 72 h, cell count, 3 days
In short: as §1

DoTc2 4510 = details: Homo sapiens, DoTc2-4510, 72 h, cell count, 3 days
In short: as §1

G-401 = details: Homo sapiens, G-401, 72 h, cell count, 3 days
In short: as §1

GA-10 = details: Homo sapiens, GA-10, 72 h, cell count, 3 days
In short: as §1

LS411N = details: Homo sapiens, LS-411N, 72 h, cell count, 3 days
In short: as §1

MT-3 = details: MT-3, 72 h, cell count, 3 days
In short: as §1

NAMALWA = details: 72 h, cell count, 3 days
In short: as §1

NCI-H292 = details: Homo sapiens, NCI-H292, 72 h, cell count, 3 days
In short: as §1

SCaBER = details: Homo sapiens, SCaBER, 72 h, cell count, 3 days
In short: as §1

SNU-C2B = details: Homo sapiens, SNU-C2B, 72 h, cell count, 3 days
In short: as §1

T98G = details: Homo sapiens, T98G, 72 h, cell count, 3 days
In short: as §1

[1] = 50% of maximum possible response

`C[C@@H]1CC(=O)NN=C1c1ccc(NN=C(C#N)C#N)cc1` [levosimendan] gave an IC50 (BC-1; [1]) of 18.9 µM, a GI50 (BC-1; corrected for time zero) of 14.6 µM and an EC50 (BC-1; curve inflection point) of 18.9 µM. For the same compound, the IC50 (BCP-1; [1]) was 12.6 µM, the GI50 (BCP-1; corrected for time zero) was 8.13 µM and the EC50 (BCP-1; curve inflection point) was 12.6 µM. For the same compound, the IC50 (Caki-2; [1]) was greater than 100 µM, the GI50 (Caki-2; corrected for time zero) was greater than 100 µM and the EC50 (Caki-2; curve inflection point) was greater than 100 µM. It also gave an IC50 (DB; [1]) of 17.6 µM, a GI50 (DB; corrected for time zero) of 14.5 µM and an EC50 (DB; curve inflection point) of 17.6 µM. The IC50 (DoTc2 4510; [1]) was 14.6 µM, the GI50 (DoTc2 4510; corrected for time zero) was 11.4 µM and the EC50 (DoTc2 4510; curve inflection point) was 10.8 µM. The IC50 (G-401; [1]) was 5.47 µM, the GI50 (G-401; corrected for time zero) was 4.83 µM and the EC50 (G-401; curve inflection point) was 5.34 µM. For the same compound, the IC50 (GA-10; [1]) was 10.2 µM, the GI50 (GA-10; corrected for time zero) was 9.28 µM and the EC50 (GA-10; curve inflection point) was 10.2 µM. The IC50 (LS411N; [1]) was greater than 100 µM, the GI50 (LS411N; corrected for time zero) was greater than 100 µM and the EC50 (LS411N; curve inflection point) was greater than 100 µM. It also gave an IC50 (MT-3; [1]) greater than 100 µM, a GI50 (MT-3; corrected for time zero) greater than 100 µM and an EC50 (MT-3; curve inflection point) greater than 100 µM. It also gave an IC50 (NAMALWA; [1]) of 12.5 µM, a GI50 (NAMALWA; corrected for time zero) of 11.3 µM and an EC50 (NAMALWA; curve inflection point) of 12.5 µM. It also gave an IC50 (NCI-H292; [1]) of 40.3 µM, a GI50 (NCI-H292; corrected for time zero) of 34.4 µM and an EC50 (NCI-H292; curve inflection point) of 40.3 µM. For the same compound, the IC50 (SCaBER; [1]) was 60.4 µM, the GI50 (SCaBER; corrected for time zero) was 56.5 µM and the EC50 (SCaBER; curve inflection point) was 60.4 µM. It also gave an IC50 (SNU-C2B; [1]) of 55.2 µM, a GI50 (SNU-C2B; corrected for time zero) of 31.1 µM and an EC50 (SNU-C2B; curve inflection point) of 45.4 µM. For the same compound, the IC50 (T98G; [1]) was greater than 100 µM, the GI50 (T98G; corrected for time zero) was greater than 100 µM and the EC50 (T98G; curve inflection point) was greater than 100 µM.
